Laboratory results published in patent US7576225B2, “6R-(3,6-dideoxy-L-arabino-hexopyranosyloxy) heptanoic acid, preparation process for the same and dauer effect thereof” (KDR Biotech. Co. Ltd., priority 2004, dated 2009).

System: C. elegance
Assay: Measurement of dauer formation effect activity
Type: in vivo, Caenorhabditis elegance
Protocol: Next, dauer formation effect of the compound of 6R-(3,6-dideoxy-L-arabino-hexopyranosyloxy)heptanoic acid (I), which is synthesized according to the present process of the invention, is measured using C. elegance.
That is, the dauer formation effect of the synthetic pheromone is measured using C. elegance tinder different feed, temperature and crowd density conditions from each other.
Although it should be passed from an L2 first half step or L3 second half step to an adult step in a condition where the feed and temperature (15-25° C.) are proper and the crowd density is low, when the synthetic pheromone is mixed, the step goes to dauer larva stage.
For comparison, seven C. elegances in the dauer larva and one C. elegance in the adult step are comparatively observed. […] In Picture 1, it can be noted that the C. elegance is not grown without moving.
To identify the dauer formation effect of the inventive pheromone, an activity is measured after the pheromone compound is supplied to S. basal agar culture medium without peptone (Vowels and Thomas, Genetics 130: 105-123, 1992).
The dauer formation effect activity of the inventive compound with respect to C. elegance is shown as Table 3.

With `C[C@H](CCCCC(=O)O)O[C@@H]1O[C@@H](C)[C@H](O)C[C@H]1O` [synthetic pheromone, 6R-(3,6-dideoxy-L-arabino-hexopyranosyloxy)heptanoic acid] the dauer formation effect (320 μg/plate of the synthetic pheromone, C. elegance) was 100% and the “dauer formation effect (observation of larvae)” value (synthetic pheromone mixed in, proper feed and temperature (15-25° C.), low crowd density) was “greatly affects the dauer formation effect”.
